Experiment: Critical (phase transition) temperature Tc by differential scanning calorimetry
Format: physicochemical
Conditions: for Tc (critical temperature), Pure: pure lipid; for Tc (phase transition temperature): lipids 21 and 25, DSC, heating rate 5° C./minute
Description: General. Melting points for the diols and the phase transition temperature Tc for the cationic lipids were determined by differential scanning calorimetry (DSC), using a TA-Instruments Q100 DSC, and a heating rate of 5° C./minute. The IR spectra were recorded on a Nicolet Avatar 360 FTIR spectrophotometer in the range 650-4000 cm^−1 using a ZnSe—attenuated total reflectance (ATR) accessory. The compounds were solved in a small amount of solvent (MeOH for the diols, CHCl3 for the lipids), and the resulted solutions were left to evaporate to dryness on the surface of the ZnSe crystals of the ATR accessory. The NMR spectra were recorded at ≈303 K with a Varian Inova spectrometer equipped with a 5 mm indirect detection probe, operating at 500 MHz for ^1H-NMR and at 125 MHz for ^13C-NMR. Chemical shifts are reported as δ values, using TMS as internal standard for proton spectra and the solvent resonance for carbon spectra. Assignments were made based on signal intensity, selective decoupling, COSY (^1H-^1H) and HETCOR (^1H-^13C) sequences. Elemental analyses were performed by combustion, using a Perkin Elmer 2400 Series II CHNS analyser.
Dioleoylphosphatidylethanolamine (DOPE), cholesterol (CHOL), N-(2,3-dioleoyloxypropyl)-N,N,N-trimethylammonium chloride (DOTAP) were commercial products. The purity of the lipids was checked by thin layer chromatography and also by differential scanning calorimetry (DSC), which was also used for determining the critical temperature Tc. For the preparation of the liposomes a protocol optimized for this type of compounds was adopted as follows. The cationic lipid (with or without helper lipid) was dissolved in chloroform/methanol (2/1, v/v) to reach a final concentration of 1 mM for the charged species. From this stock solution 50 μL were aliquoted in a 1 mL tube and the solvent was evaporated in a SpeedVac evaporator, under vacuum, for 1 h. The dried lipid film was prepared by removing the traces of organic solvent in a dessicator, over Drierite®, under vacuum, overnight. The film was hydrated with 500 μL sterile phosphate buffer saline (PBS) the tube was purged with sterile N2, and vortexed for 1 minute. The liposomes were generated by sonicating the tube in a water bath sonicator for 5-30 minutes at 62° C. and at 37° C. for DOTAP. After sonication the preparations were allowed to reach room temperature.
Materials and Methods. Melting points for the diols, acetates and ketals were determined on a Boetius heating plate microscope and are uncorrected. For the cationic lipids 21 and 25 the phase transition temperature Tc was determined by differential scanning calorimetry (DSC), using a TA-Instruments Q100 DSC, and a heating rate of 5° C./minute. The IR spectra were recorded on a Nicolet Avatar 360 FTIR spectrophotometer, in the range 650-4000 cm^−1, using a ZnSe—attenuated total reflectance (ATR) accessory. The compounds were solved in a small amount of solvent (MeOH for the diols, CHCl3 for the esters), the resulted solutions being left to evaporate to dryness on the surface of the ZnSe crystals of the ATR accessory. This technique was imposed by the poor results obtained in transmission mode for some of the compounds, due to the lack of crystallization, hygroscopicity and other problems related with working with KBr pellets. The NMR spectra were recorded at ≈303 K with a Varian Gemini 300BB spectrometer operating at 300 MHz for ^1H and at 75 MHz for ^13C. Chemical shifts are reported as δ values, using TMS as internal standard for proton spectra and the solvent resonance for carbon spectra: 77.00 ppm in CDCl3, 39.50 ppm in DMSO-d6, the line from 123.50 ppm in pyridine-d5, 62.80 ppm in nitromethane-d3, 30.10 ppm in dimethylformamide-d7. Assignments were made based on signal intensity, selective decoupling and COSY (^1H-^1H) and HETCOR (^1H-^13C) sequences. Nitrogen elemental analysis was performed by combustion, mixing the samples with small amounts of quartz sand.

Structure (SMILES) | Tc (critical temperature), Pure | Tc (critical temperature), With cholesterol (1:1 molar ratio) | Tc (phase transition temperature)
CCCCCCCCCCCCCCCC(=O)Oc1ccc(CC[n+]2c(C)cc(C)cc2C)cc1OC(=O)CCCCCCCCCCCCCCC.F[P-](F)(F)(F)(F)F [Lipid 7APal, 1-(3,4-dipalmitoyloxyphenylethyl)-2,4,6-trimethylpyridinium hexafluorophosphate] | 140.0 °C | 124.1 °C | 
CCCCCCCCCCCCCCCC(=O)OCC(COC(=O)CCCCCCCCCCCCCCC)[n+]1c(C)cc(C)cc1C.F[P-](F)(F)(F)(F)F [Lipid 5APal, 1-(1,3-dipamitoyloxypropane-2-yl)-2,4,6-trimethylpyridinium hexafluorophosphate] | 75.5 °C | 61.0 °C | 
CCCCCCCC/C=C\CCCCCCCC(=O)OCC(COC(=O)CCCCCCC/C=C\CCCCCCCC)[n+]1c(C)cc(C)cc1C.F[B-](F)(F)F [Lipid 25AbO, 1-(1,3-Dioleoyloxypropane-2-yl)-2,4,6-trimethylpyridinium tetrafluoroborate] |  |  | 43 °C
CCCCCCCCCCCCCCCCCC(=O)OCC(COC(=O)CCCCCCCCCCCCCCCCC)[n+]1c(C)cc(C)cc1C.[O-][Cl+3]([O-])([O-])[O-] [Lipid 25AaS, 1-(1,3-Distearoyloxypropane-2-yl)-2,4,6-trimethylpyridinium perchlorate] |  |  | 70 °C
CCCCCCCCCCCCCCCCCC(=O)OCC(C[n+]1c(C)cc(C)cc1C)OC(=O)CCCCCCCCCCCCCCCCC.[O-][Cl+3]([O-])([O-])[O-] (centres unmarked) [Lipid 21AaS, 1-(2,3-Distearoyloxypropyl)-2,4,6-trimethylpyridinium perchlorate] |  |  | 110 °C
CCCCCCCCCCCCCCCC(=O)OCC(C[n+]1c(C)cc(C)cc1C)OC(=O)CCCCCCCCCCCCCCC.F[B-](F)(F)F (centres unmarked) [Lipid 21AbP, 1-(2,3-Dipamitoyloxypropyl)-2,4,6-trimethylpyridinium tetrafluoroborate] |  |  | 100 °C
CCCCCCCCCCCCCCCC(=O)OCC(C[n+]1c(C)cc(C)cc1C)OC(=O)CCCCCCCCCCCCCCC.F[P-](F)(F)(F)(F)F (centres unmarked) [Lipid 3APal, 1-(2,3-dipamitoyloxypropyl)-2,4,6-trimethylpyridinium hexafluorophosphate] | 123.5 °C | 114.0 °C | 
CCCCCCCCCCCCCCCCCC(=O)OCC(COC(=O)CCCCCCCCCCCCCCCCC)[n+]1c(C)cc(C)cc1C.F[P-](F)(F)(F)(F)F [Lipid 5ASte, 1-(1,3-distearoyloxypropane-2-yl)-2,4,6-trimethylpyridinium hexafluorophosphate] | 79.6 °C | 66.1 °C | 
CCCCCCCC/C=C\CCCCCCCC(=O)OCC(C[n+]1c(C)cc(C)cc1C)OC(=O)CCCCCCC/C=C\CCCCCCCC.[O-][Cl+3]([O-])([O-])[O-] (centres unmarked) [Lipid 21AaO, 1-(2,3-Dioleoyloxypropyl)-2,4,6-trimethylpyridinium perchlorate] |  |  | 57 °C
CCCCCCCCCCCCCCCC(=O)OCC(C[n+]1c(C)cc(C)cc1C)OC(=O)CCCCCCCCCCCCCCC.[O-][Cl+3]([O-])([O-])[O-] (centres unmarked) [Lipid 21AaP, 1-(2,3-Dipamitoyloxypropyl)-2,4,6-trimethylpyridinium perchlorate] |  |  | 106 °C
CCCCCCCC(=O)Oc1ccc(CC[n+]2c(C)cc(C)cc2C)cc1OC(=O)CCCCCCC.F[P-](F)(F)(F)(F)F [Lipid 7ACpy, 1-(3,4-dioctanoyloxyphenylethyl)-2,4,6-trimethylpyridinium hexafluorophosphate] | 134.1 °C | 127.3 °C | 
CCCCCCCCCCCCCCCCCC(=O)Oc1ccc(CC[n+]2c(C)cc(C)cc2C)cc1OC(=O)CCCCCCCCCCCCCCCCC.F[P-](F)(F)(F)(F)F [Lipid 7ASte, 1-(3,4-distearoyloxyphenylethyl)-2,4,6-trimethylpyridinium hexafluorophosphate] | 138.8 °C | 123.9 °C | 
CCCCCCCCCCCC(=O)OCC(COC(=O)CCCCCCCCCCC)[n+]1c(C)cc(C)cc1C.F[P-](F)(F)(F)(F)F [Lipid 5ALau, 1-(1,3-dilauroyloxypropane-2-yl)-2,4,6-trimethylpyridinium hexafluorophosphate] | 58.2 °C | 41.9 °C | 
CCCCCCCCCCCCCCCC(=O)OCC(C[n+]1c(-c2ccccc2)cc(-c2ccccc2)cc1-c1ccccc1)OC(=O)CCCCCCCCCCCCCCC.[O-][Cl+3]([O-])([O-])[O-] (centres unmarked) [Lipid 21BaP, 1-(2,3-Dipalmitoyloxypropyl)-2,4,6-triphenylpyridinium perchlorate] |  |  | 134 °C
CCCCCCCCCCCC(=O)OCC(C[n+]1c(C)cc(C)cc1C)OC(=O)CCCCCCCCCCC.F[P-](F)(F)(F)(F)F (centres unmarked) [Lipid 3ALau, 1-(2,3-dilauroyloxypropyl)-2,4,6-trimethylpyridinium hexafluorophosphate] | 114.0 °C | 106.7 °C | 
CCCCCCCCCC(=O)Oc1ccc(CC[n+]2c(C)cc(C)cc2C)cc1OC(=O)CCCCCCCCC.F[P-](F)(F)(F)(F)F [Lipid 7ACpc, 1-(3,4-didecanoyloxyphenylethyl)-2,4,6-trimethylpyridinium hexafluorophosphate] | 140.0 °C | 129.2 °C | 
CCCCCCCCCCCCCCCCCC(=O)OCC(C[n+]1c(C)cc(C)cc1C)OC(=O)CCCCCCCCCCCCCCCCC.F[B-](F)(F)F (centres unmarked) [Lipid 21AbS, 1-(2,3-Distearoyloxypropyl)-2,4,6-trimethylpyridinium tetrafluoroborate] |  |  | 103 °C
CCCCCCCCCCCCCCCC(=O)OCC(COC(=O)CCCCCCCCCCCCCCC)[n+]1c(-c2ccccc2)cc(-c2ccccc2)cc1-c1ccccc1.[O-][Cl+3]([O-])([O-])[O-] [Lipid 25BaP, 1-(1,3-Dipalmitoyloxypropane-2-yl)-2,4,6-triphenylpyridinium perchlorate] |  |  | 125 °C
CCCCCCCC/C=C\CCCCCCCC(=O)OCC(COC(=O)CCCCCCC/C=C\CCCCCCCC)[n+]1c(C)cc(C)cc1C.[O-][Cl+3]([O-])([O-])[O-] [Lipid 25AaO, 1-(1,3-Dioleoyloxypropane-2-yl)-2,4,6-trimethylpyridinium perchlorate] |  |  | 48 °C
CCCCCCCCCCCCCCCC(=O)OCC(COC(=O)CCCCCCCCCCCCCCC)[n+]1c(C)cc(C)cc1C.[O-][Cl+3]([O-])([O-])[O-] [Lipid 25AaP, 1-(1,3-Dipamitoyloxypropane-2-yl)-2,4,6-trimethylpyridinium perchlorate] |  |  | 66 °C
CCCCCCCC/C=C\CCCCCCCC(=O)Oc1ccc(CC[n+]2c(C)cc(C)cc2C)cc1OC(=O)CCCCCCC/C=C\CCCCCCCC.F[P-](F)(F)(F)(F)F [Lipid 7AOle, 1-(3,4-dioleoyloxyphenylethyl)-2,4,6-trimethylpyridinium hexafluorophosphate] | 106.8 °C | 97.3 °C | 
CCCCCCCCCCCCCCCCCC(=O)OCC(COC(=O)CCCCCCCCCCCCCCCCC)[n+]1c(C)cc(C)cc1C.F[B-](F)(F)F [Lipid 25AbS, 1-(1,3-Distearoyloxypropane-2yl)-2,4,6-trimethylpyridinium tetrafluoroborate] |  |  | 73 °C

Reference: patent publication US7456197B2, “Pyridinium cationic lipids as gene transfer agents” (The Texas A&M University System, priority 2003, dated 2008)
